Reference: PubChem BioAssay (NCI)
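All cell lines were grown in 96-well plates and treated with compound for 48 hours. At the TGI there is no net growth.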

Columns and labels:
Experiment in all cases: inhibition of tumour cell growth, NCI panel, 48 h
[1] = test system: UACC-62 melanoma
[2] = test system: HCT-116 colon
[3] = test system: OVCAR-8 ovarian
[4] = test system: NCI-H23 lung
[5] = test system: HS 578T breast
[6] = test system: OVCAR-4 ovarian
[7] = test system: SF-539 CNS
[8] = test system: HCT-15 colon
[9] = test system: NCI/ADR-RES ovarian
[10] = test system: SK-MEL-5 melanoma
[11] = test system: HOP-62 NSCLC
[12] = test system: UO-31 renal
[13] = test system: CAKI-1 renal
[14] = test system: U251 CNS
[15] = test system: SNB-19 CNS
[16] = test system: SF-295 CNS
[17] = test system: HT29 colon
[18] = test system: OVCAR-3 ovarian
[19] = test system: SK-MEL-28 melanoma
[20] = test system: SW-620 colon
[21] = test system: A498 renal
[22] = test system: MCF7 breast
[23] = test system: CCRF-CEM leukemia
[24] = test system: PC-3 prostate
[25] = test system: MOLT-4 leukemia
[26] = test system: IGROV1 ovarian
[27] = test system: KM12 colon
[28] = test system: EKVX NSCLC
[29] = test system: RPMI-8226 leukemia
[30] = test system: NCI-H460 lung
[31] = test system: COLO 205 colon
[32] = test system: DU-145 prostate
[33] = test system: M14 melanoma
[34] = test system: K-562 leukemia
[35] = test system: UACC-257 melanoma
[36] = test system: SR leukemia
[37] = test system: OVCAR-5 ovarian
[38] = test system: A549 NSCLC
[39] = test system: SK-MEL-2 melanoma
[40] = test system: HL-60(TB) leukemia
[41] = test system: MALME-3M melanoma
[42] = test system: HCC-2998 colon
[43] = test system: LOX IMVI melanoma
[44] = test system: 786-0 renal
[45] = test system: MDA-MB-435
[46] = test system: SF-268 CNS
[47] = test system: BT-549 breast
[48] = test system: ACHN renal
[49] = test system: NCI-H522 lung
[50] = test system: SK-OV-3 ovarian

CCN(CC)c1ccc2cc(C(=O)Nc3ccccc3OC)c(=N)oc2c1
TGI [1]: > 100 µM | TGI [2]: > 100 µM | TGI [3]: 23 µM | TGI [4]: 89.8 µM | TGI [5]: 98.4 µM | TGI [6]: > 100 µM | TGI [7]: > 100 µM | TGI [8]: 88.3 µM | TGI [9]: 90.8 µM | TGI [10]: > 100 µM | TGI [11]: > 100 µM | TGI [12]: 1.58 µM | TGI [13]: 72.1 µM | TGI [14]: > 100 µM | TGI [15]: > 100 µM | TGI [16]: > 100 µM | TGI [17]: > 100 µM | TGI [18]: > 100 µM | TGI [19]: > 100 µM | TGI [20]: > 100 µM | TGI [21]: > 100 µM | TGI [22]: > 100 µM | TGI [23]: 20.8 µM | TGI [24]: 59.6 µM | TGI [25]: 17.2 µM | TGI [26]: 35.3 µM | TGI [27]: > 100 µM | TGI [28]: > 100 µM | TGI [29]: 88.7 µM | TGI [30]: > 100 µM | TGI [31]: > 100 µM | TGI [32]: > 100 µM | TGI [33]: > 100 µM | TGI [34]: > 100 µM | TGI [35]: > 100 µM | TGI [36]: > 100 µM | TGI [37]: > 100 µM | TGI [38]: > 100 µM | TGI [39]: > 100 µM | TGI [40]: 31.6 µM | TGI [41]: > 100 µM | TGI [42]: > 100 µM | TGI [43]: 58.2 µM | TGI [44]: > 100 µM | TGI [45]: > 100 µM | TGI [46]: > 100 µM | TGI [47]: 74.5 µM | TGI [48]: > 100 µM | TGI [49]: 65.6 µM | TGI [50]: > 100 µM
